Data: patent US6361995B1, “Protection of pancreatic β-cells during islet isolation and assessment of islet viability and candidate diabetes drugs after islet isolation” (NAB Research Foundation, priority 1999, dated 2002)
Blank lines part the entries; values can stand above or below the compound they belong to.

Key:
[1] = test system: p135 (135 kD O-glycosylated protein) in isolated islets; experiment: p135 O-glycosylation in isolated islets (RL2 immunoprecipitation and Western blotting); format: cell-based, rat; details: for increase in p135 O-glycosylation: 5 mM, 60 min, islets isolated in 11 mM glucose and 1 mM L-glutamine; for effect on glucose-induced p135 O-glycosylation: 100 μM DON with 28 mM glucose
Method: (§1) In a typical experiment, islets were isolated aseptically from 3-4 male Sprague-Dawley rats. During surgery, the common bile duct of each pancreas was cannulated, and the pancreas was inflated with 20 ml of Hank's Balanced Salt Solution (HBSS). The distended pancreas was excised, and lymph nodes, fat, blood vessels, and bile ducts were removed under a stereo dissecting microscope. Tissue was chopped extensively and rinsed 5-6 times with HBSS. The tissue was digested with collagenase P (3 mg/ml tissue) at 37° C. for 3-4 min using a wrist action shaker. Digested tissue was rinsed 3-4 times with HBSS, and islets were purified on a discontinuous Ficoll gradient consisting of 27%, 23%, 20.5%, and 11% Ficoll in (25 mM) HEPES-HBSS buffer. Islets were harvested from the gradient and washed once with HBSS. Islets were washed 6 times in DMEM supplemented with 25 mM HEPES pH 7.40, 25 mM NaHCO3, 0.1% bovine serum albumin, 3 mM glucose, and 1 mM L-glutamine (complete DMEM). This isolation procedure typically provided 300-400 islets per rat, which were then used as described below. In selected experiments, islets were isolated as described above, except that all isolation buffers were supplemented t o contain 11 mM glucose and 1 mM L-glutamine.
(§2) Freshly isolated islets were placed into siliconized 16×100-mm round bottom, screw-cap tubes and pre-incubated for 30 min in 1 ml of complete DMEM. For each experiment, 100 islets were placed into each tube. Pre-incubation and all subsequent incubations were performed at 37° C. under an atmosphere of 95% O2/5% CO2. After 30 min, pre-incubation buffer was aspirated, and islets were incubated with complete DMEM supplemented with the appropriate secretagogue. At the end of the incubation period, the entire supernatant was removed for insulin radioimmunoassay. Islets were processed for subsequent immunoprecipitation as described below. For each experiment, insulin secretion in the control sample was set at 100% and all other results were expressed as percentages of control.
At the end of the experiment, all supernatant was removed from the tubes or dishes. One ml of ice-cold lysis buffer (50 mM HEPES, pH 7.40, 150 mM NaCl, 1% Triton X-100, 5 mM EDTA, 5 mM EGTA, 20 mM NaF, 20 mM Na4P2O7, 1 mM NaVO4, 1 mg/ml bacitracin, 1 mM phenylmethylsulfonylfluoride, 1 μg/ml leupeptin, 1 μg/ml aprotinin) was added to each tube or dish. Cells were scraped on ice into 1.5 ml conical screw cap Eppendorf tubes. Borosilicate tubes containing islets were vortexed for 30 sec and placed on ice for 30 min. Islet samples were vortexed for an additional minute before transfer to 1.5-ml conical screw cap Eppendorf tubes. All subsequent immunoprecipitation steps were performed at 4° C. Samples were centrifuged at 10,000×g for 15 min. The supernatant was transferred to a second 1.5-ml conical Eppendorf tube, and O-glycosylated proteins were immunoprecipitated for 2 h on a rocker with 2 μl of mouse monoclonal RL2 antibody, which selectively binds to O-glycosylated protein (21,22). After 2 h, 20 μl of protein A trisacryl beads (Pierce) preadsorbed with 20 μg of rabbit anti-mouse antibody (Sigma) were added to the tubes and the incubation was continued for an additional 2 hours. At the end of the incubation, beads were washed once with Wash Buffer 1 (150 mM NaCl, 10 mM HEPES, pH 7.40, 1% Triton X-100, and 0.1% SDS) and once with Wash Buffer 2 (10 mM HEPES, pH 7.40, 1% Triton X-100, and 0.1% SDS). After the final washing step, 25 μl of 2× sample buffer (100 mM Tris, pH 6.80, 4% SDS, 20% glycerol, and 20 μg/liter bromophenol blue) was added to each tube. Samples were vortexed for 30 sec, boiled for 5 min, and stored at −20° C. prior to subsequent analysis.
Samples were loaded onto 7.5% SDS-polyacrylamide gels. Colored molecular weight markers (Amersham) were run on each gel. Proteins were separated for 1 h at 175 V at room temperature using a Bio-Rad Mini-PROTEAN II dual slab cell. […]

isolated islets = experiment: Insulin secretion from isolated islets (radioimmunoassay); format: cell-based, rat; details: for Insulin (secretion in isolated islets): islets isolated in 11 mM glucose and 1 mM L-glutamine
Method: as §1, §2
Films were photographed using a Sony digital camera, and intensities of bands present on films were quantitated using the program NIH Image. All results are expressed as the mean±SEM, using the Windows-compatible version 2.98 of the program FigP (Biosoft, St. Louis, Mo.). Statistical analysis was performed using the same program. Data were analyzed by one-way analysis of variance followed by multiple comparisons between the means using the least significant difference test. A probability of p<0.05 was considered to indicate statistical significance.

β-TC3 cells = experiment: Protein O-glycosylation in β-TC3 cells (RL2 immunoprecipitation and Western blotting); format: cell-based; details: 5 mM, 60 min after 30 min in 0 mM glucose (FIG. 8)
Method: β-TC3 cells (passage 37) were obtained form the University of Pennsylvania Diabetes Center from Dr. D. Hanahan (University of California, San Francisco). β-TC3 cells were cultured in 10-cm dishes in the presence of RPMI 1640 medium supplemented with 10% fetal bovine serum, penicillin (75 μg/ml), streptomycin (50 μg/ml), and 2 mM L-glutamine. Cells were trypsinized and subcloned weekly. Media were changed twice weekly and on the day prior to an experiment, and insulin responsiveness to glucose and carbachol was routinely monitored. Cells were used between passages 38 and 55.
β-TC3 cells in 10-cm dishes were washed three times in Krebs'-HEPES buffer (25 mM HEPES, pH 7.40, 115 mM NaCl, 24 mM NaHCO3, 5 mM KCl, 2.5 mM CaCl2, 1 mM MgCl2) supplemented with 0.1% bovine serum albumin and 1 mM L-glutamine. Cells were pre-incubated in 5 ml of the same buffer for 30 min at 37° C. under an atmosphere of 95% air/5% CO2. After 30 min, the pre-incubation buffer was aspirated and cells were incubated at 37° C. under an atmosphere of 95% air/5% CO2 with 5 ml of Krebs'-HEPES buffer supplemented with the appropriate secretagogue. At the end of the incubation period, supernatant was removed for insulin radioimmunoassay. Cells left in the dishes were processed for subsequent immunoprecipitation as described below.
At the end of the experiment, all supernatant was removed from the tubes or dishes. […]

β-cells = details: 50-100 mg/kg administered to a rat; development of diabetes; cited from earlier work
[2] = test system: RL2 antibody binding to p135; experiment: Blocking of RL2 antibody immunoprecipitation of p135 by added sugars; set-up: species or system mouse; details: 0.3 M added during the RL2 immunoprecipitation step (FIG. 3)
Method: Islets (100/condition) were incubated for 60 min with either 3 mM glucose (G3) or 28 mM glucose following pre-incubation with 5 mM streptozotocin (STZ). At the end of the incubation period, O-glycosylated proteins were immunoprecipitated with RL2 antibody in the presence of 0.3 M N-acetylglucosamine (GlcNAc), 0.3 M N-acetylgalactosamine (GalNAc), or 0.3 M glucosamine (GlcN) and analyzed by Western blotting as described in FIG. 1.
At the end of the experiment, all supernatant was removed from the tubes or dishes. One ml of ice-cold lysis buffer (50 mM HEPES, pH 7.40, 150 mM NaCl, 1% Triton X-100, 5 mM EDTA, 5 mM EGTA, 20 mM NaF, 20 mM Na4P2O7, 1 mM NaVO4, 1 mg/ml bacitracin, 1 mM phenylmethylsulfonylfluoride, 1 μg/ml leupeptin, 1 μg/ml aprotinin) was added to each tube or dish. Cells were scraped on ice into 1.5 ml conical screw cap Eppendorf tubes. Borosilicate tubes containing islets were vortexed for 30 sec and placed on ice for 30 min. Islet samples were vortexed for an additional minute before transfer to 1.5-ml conical screw cap Eppendorf tubes. All subsequent immunoprecipitation steps were performed at 4° C. Samples were centrifuged at 10,000×g for 15 min. […]

SMILES: CN(N=O)C(=O)N[C@H]1C(O)O[C@H](CO)[C@@H](O)[C@@H]1O (mixture of isomers) [streptozotocin]
reversibility of p135 O-glycosylation ([1]; 5 mM pre-incubation 30 min, then 3 or 28 mM glucose 30 min, then 3 mM glucose 30 min (FIG. 5)): not readily reversible | stimulation of p135 O-glycosylation in the presence of DON ([1]; 5 mM with 100 μM DON, 60 min (FIG. 4)): able to increase p135 O-glycosylation | increase in p135 O-glycosylation ([1]; compared to 3 mM glucose control (FIG. 7 experiment)): 361.3±78.8% | increase in p135 O-glycosylation ([1]; versus 3 mM glucose control (FIG. 2)): 333.9±66.8% | stimulation of p135 O-glycosylation ([1]; islets isolated in low glucose and no added L-glutamine, concentration not given): no consistent increase in p135 O-glycosylation | Insulin (secretion in isolated islets) (isolated islets; 5 mM, DON 0, 60 min, control 3 mM glucose = 100): 147.1 ± 16.8% | Insulin (secretion in isolated islets) (isolated islets; 5 mM, DON 100 (μM), 60 min, control 3 mM glucose = 100): 115.6 ± 7.8% | O-glycosylation response of β-TC3 cells (β-TC3 cells): fail to undergo increased O-glycosylation | time to death of most of the β-cells (β-cells): ≤ 8 h

SMILES: [N-]=[N+]=CC(=O)CC[C@H](N)C(=O)O [DON, 6-diazo-5-oxonorleucine]
effect on glucose-induced p135 O-glycosylation ([1]; 60 min (FIG. 4)): inhibited | effect on glucose-induced p135 O-glycosylation ([1]; 60 min (FIG. 4), listed as 5-diazo-oxo-norleucine): completely blocked | effect on glucose-induced insulin secretion (isolated islets; 100 μM DON with 28 mM glucose, 60 min): no significant effect | Insulin (secretion in isolated islets) (isolated islets; DON 100 (μM) in 3 mM glucose, 60 min, control 3 mM glucose without DON = 100): 160.6 ± 50.5%

SMILES: CC(=O)N[C@H]1C(O)O[C@H](CO)[C@H](O)[C@@H]1O (stereo partly drawn) [GalNAc, N-acetylgalactosamine]
inhibition of RL2 immunoprecipitation of p135 [2]: neither GalNAc nor glucosamine added at the same concentration as GlcNAc prevented

inhibition of RL2 immunoprecipitation of p135 [2]: completely inhibited
SMILES: CC(=O)N[C@H]1C(O)O[C@H](CO)[C@@H](O)[C@@H]1O (stereo partly drawn) [GlcNAc, N-acetylglucosamine]
